Data taken from patent EP2118137B1, “PEPTIDES AND POLYPEPTIDES WITH IMPROVED STABILITY USEFUL IN THE REGENERATION OF THE NERVOUS SYSTEM” (Neuronax, priority 2006, dated 2011).
“Also recorded” adds a separate entry of the source. One block for each molecule: values may come before it. Square brackets hold non-standard residues; d marks the D form. Peptide text beside a SMILES is read from it. 2Nal = N[C@@H](Cc1ccc2ccccc2c1)C(=O)O; Lys(iPr) = CC(C)NCCCC[C@H](N)C(=O)O; Abu = CC[C@H](N)C(=O)O

Tests used:
[1] = system: cellules de la lignée B104; assay: Morphological differentiation and neurite outgrowth of B104 cells; format: cell-based, rat
Description: L'activité biologique des différents peptides a été analysée par ajout de chacun des peptides dans des cultures de cellules nerveuses et suivi des modifications morphologiques de ces cellules.
Des cellules de la lignée B104, issues de neuroblastome de rat, sont cultivées à raison de 1000 cellules par puits dans des plaques de 48 puits préalablement recouverts de poly-lysine (fourni par Sigma-Aldrich), dans du milieu de Eagle modifié par Dubelco (DMEM), supplémenté de glutamine et d'antibiotique, et additionné de 10% de sérum de veau foetal pendant la phase d'adhésion. Le milieu est ensuite remplacé par un nouveau milieu DMEM ne contenant pas de sérum et permettant la différenciation des cellules. Après traitement, c'est-à-dire après ajout du composé à tester, les cellules sont maintenues en culture à 37°C sous une atmosphère à 10% de CO2. L'évolution de la morphologie cellulaire et la prolifération sont suivies par examen microscopique en contraste de phase chaque jour sur la période de culture. La différenciation cellulaire, et en particulier l'effet sur la pousse neuritique, est alors mesurée.

[2] = Stability of peptides in aqueous solution (HPLC purity on storage); format: physicochemical; conditions: 22°C, 50% relative humidity, HPLC after 0, 3, 7, 11 and 22 days
Protocol: Les peptides synthétiques ont été mis en solution aqueuse (1,5 mg de peptide dissout dans 1000 µL d'eau stérile).
Leur pureté a été testée par HPLC, elle était d'au moins 97,0%.
Ces solutions ont ensuite été diluées : à 0,4 mL de chacune de ces solutions, on a ajouté 1,1 mL d'eau purifiée.
Ces solutions ont été placées en étuve à 22°C et 50% d'humidité relative, et analysées après : 0, 3, 7, 11 et 22 jours.
L'analyse a été faite par HPLC en gradient de phase inverse à une concentration de 0,4 mg/mL, avec les paramètres suivants : - cartouche Symétrie RP18 (Waters) 125 x 4,6 mm - phases mobiles A : H2O + TFA 0.1 % (w/v) B : Acétonitrile + TFA 0.1 % (v/v) - détection : 210 nm - débit : 1 ml/min - volume d'injection : 20 µl de solution (soit 8 µg de peptide) - gradient : […]
Les échantillons ont été placés en étuve à 22 °C, 50 % d'humidité relative et analysés à : 0 jours, 3 jours, 7 jours, 11 jours et 22 jours.
Les résultats sont présentés dans le Tableau 1 et sur la Figuré 1.
Le paramètre « TR » exprime le temps de rétention du peptide en minutes dans la colonne de HPLC.
Le paramètre « Pureté » exprimé la pureté du peptide en % tel que déterminé par HPLC.
La colonne « Impuretés : TR est % » indique pour le pic supplémentaire le plus intense, le temps de rétention en minutes et le pourcentage en masse. La colonne SEQ indique le numéro de la séquence (SEQ ID N° X).

cellules B104 = conditions: cited from earlier work
cellules nerveuses = conditions: added daily to the culture medium at its optimal dose; cited from earlier work
[3] = system: souris avec lésion ischémique partielle; assay: Mouse partial ischemic spinal cord lesion, functional evaluation of walking; format: in vivo; conditions: partial ischemic lesion causing paralysis
Description: Une première caractérisation in vivo des phénomènes de repousse neuritique et de survie neuronale a été effectuée sur deux modèles d'animaux différents dans le cas du trauma de la moelle épinière (réparation de la moelle épinière après rupture).

Molecule: CC[C@H](NC(=O)[C@H](CO)NC(=O)[C@H](CO)NC(=O)[C@H](Cc1c[nH]c2ccccc12)NC(=O)CNC(=O)[C@H](CO)NC(=O)[C@@H](N)Cc1c[nH]c2ccccc12)C(=O)N[C@@H](CO)C(=O)N[C@@H](CCCNC(=N)N)C(=O)N[C@@H](CO)C(N)=O [NH2-W-S-G-W-S-S-Abu-S-R-S-NH2] (H-WSGWSS[Abu]SRS-NH2)
induction de la pousse neuritique ([1]; B104 cells): s'est montré actif

Molecule: CC(C)NCCCC[C@H](NC(=O)[C@H](CO)NC(=O)[C@H](CS)NC(=O)[C@H](CO)NC(=O)[C@H](CO)NC(=O)[C@H](Cc1c[nH]c2ccccc12)NC(=O)CNC(=O)[C@H](CO)NC(=O)[C@@H](N)Cc1c[nH]c2ccccc12)C(=O)N[C@@H](CO)C(=O)O [SEQ ID N°6, W-S-G-W-S-S-C-S-K-(iPr)-S] (H-WSGWSSCS[Lys(iPr)]S-OH)
stabilité en solution aqueuse [2]: stabilité en solution améliorée

Molecule: W-S-G-W-S-S-C-S-R-S-C-G (WSGWSSCSRSCG) [SEQ ID N°1, séquence la plus représentative d'un motif TSR de la SCO-spondine]
pousses neuritiques (cellules B104; after three days of culture, without serum): pousses neuritiques importantes
différenciation cellulaire (cellules B104): induit la pousse neuritique et l'agrégation cellulaire
nombre de neurites (cellules B104): induit une augmentation
taille du neurite le plus long (cellules B104): induit une augmentation
regroupements cellulaires (agrégation) (cellules B104; from 3 or 4 days of culture): apparition de regroupements de ces cellules B 104 différenciées
effet sur la pousse neuritique (dose) (cellules B104; increasing range of peptide concentrations): dépendant de la dose de peptide utilisée
stabilité en solution aqueuse [2]: se dégrade plus vite; also recorded: diminue en solution aqueuse avec le temps
effet du peptide avec ajout quotidien (cellules nerveuses): l'effet observé était accentué
activité régénératrice (évaluation fonctionnelle au niveau de la marche) [3]: activité régénératrice
réponse des cellules B 104 (effet dose-réponse) [1]: proportionnelle à la concentration de peptide
étalement du corps cellulaire ([1]; 24 hours after adding the peptides): cet effet est présent
incidence du remplacement de l'extrémité carboxyterminale par une extrémité aminée sur l'effet du peptide ([1]; B104 cells): aucune incidence
nombre de neurites par cellule ([1]; after 3 days of culture): effet inducteur de la pousse neuritique
pousses neuritiques ([1]; after 3 days of culture): pousses neuritiques importantes

Results, then the molecule that gave them:

stabilité en solution aqueuse [2]: stabilité en solution améliorée
Molecule: CC[C@H](NC(=O)[C@H](CO)NC(=O)[C@H](CO)NC(=O)[C@H](Cc1c[nH]c2ccccc12)NC(=O)CNC(=O)[C@H](CO)NC(=O)[C@@H](N)Cc1c[nH]c2ccccc12)C(=O)N[C@@H](CO)C(=O)N[C@@H](CCCNC(=N)N)C(=O)N[C@@H](CO)C(=O)O [SEQ ID N°4, W-S-G-W-S-S-Abu-S-R-S] (H-WSGWSS[Abu]SRS-OH)

stabilité en solution aqueuse [2]: stabilité en solution améliorée
Molecule: CC[C@H](NC(=O)[C@H](CCCNC(=N)N)NC(=O)[C@H](CO)NC(=O)[C@H](CS)NC(=O)[C@H](CO)NC(=O)[C@H](CO)NC(=O)[C@H](Cc1c[nH]c2ccccc12)NC(=O)CNC(=O)[C@H](CO)NC(=O)[C@@H](N)Cc1c[nH]c2ccccc12)C(=O)O [SEQ ID N°5, W-S-G-W-S-S-C-S-R-Abu] (H-WSGWSSCSR[Abu]-OH)

stabilité en solution aqueuse [2]: stabilité en solution améliorée
Molecule: CC[C@H](NC(=O)[C@@H](N)Cc1c[nH]c2ccccc12)C(=O)NCC(=O)N[C@@H](Cc1c[nH]c2ccccc12)C(=O)N[C@@H](CO)C(=O)N[C@@H](CO)C(=O)N[C@@H](CS)C(=O)N[C@@H](CO)C(=O)N[C@@H](CCCNC(=N)N)C(=O)N[C@@H](CO)C(=O)O [SEQ ID N°7, W-Abu-G-W-S-S-C-S-R-S] (H-W[Abu]GWSSCSRS-OH)

stabilité en solution aqueuse [2]: stabilité en solution améliorée
Molecule: N=C(N)NCCC[C@H](NC(=O)[C@H](CO)NC(=O)[C@H](CS)NC(=O)[C@H](CO)NC(=O)[C@H](CO)NC(=O)[C@H](Cc1c[nH]c2ccccc12)NC(=O)CNC(=O)[C@H](CO)NC(=O)[C@@H](N)Cc1ccc2ccccc2c1)C(=O)N[C@@H](CO)C(=O)O [SEQ ID N°8, L-Nal2-S-G-W-S-S-C-S-R-S] (H-[2Nal]SGWSSCSRS-OH)
